Experiments:
Maiden Merino ewes = details: in vivo
ewes = details: in vivo; cited from earlier work

superovulation (Maiden Merino ewes): does not induce superovulation
SMILES: COc1ccc2[nH]cc(CCNC(C)=O)c2c1 [Melatonin, N-acetyl 5-methoxy tryptamine]
basal prolactin levels (ewes): depressed | breeding season (ewes): advanced
